US10016424B2, “Method and pharmaceutical composition for use in the treatment of epilepsy” (INSERM (Institut National de la Sante et de la Recherche …, priority 2013, dated 2018)

Experiments:
[1] = test system: dentate gyrus of organotypic slices; experiment: Spontaneous interictal-like activity, extracellular field recordings in pilocarpine-treated organotypic hippocampal slice cultures; assay type: cell-based, mouse
Description: Hippocampal/entorhinal cortex slices (350 μm) were prepared from pre-genotyped GluK2−/− and WT mice (P9-10, FVB/N background) using a McIlwain tissue chopper. Slices were placed on mesh inserts (Millipore # PICMORG50) inside culture dishes containing 1 ml of the following medium: MEM 50%, HS 25%, HBSS 25%, HEPES 15 mM glucose 6.5 mg/ml and insulin 0.1 mg/ml. Culture medium was changed every 2-3 days and slices maintained in an incubator at 37° C./5% CO2. Pilocarpine (0.5 μM) was added to the medium at 5 D.I.V and removed at 7 D.I.V; slices were utilized for experiments from 9 D.I.V.
Cultured or acute slices were individually transferred to a recording chamber maintained at 30-32° C. and continuously perfused (2 ml/min) with oxygenated normal or adapted ACSF containing 5 μM gabazine. Local field potentials were made in the granule cell layer of the DG with glass electrodes (2-3 MΩ; filled with normal ACSF) using a DAM-80 amplifier (low filter, 1 Hz; […], 3 KHz; World Precision Instruments, Sarasota, Fla.). For evoked synaptic transmission, electrical stimulation was performed with a bipolar NiCh electrode (#762000, AM systems). Whole-cell voltage-clamp recordings of DGCs were made using tight-seal electrodes (5-8 MΩ) filled with an internal solution containing the following (in mM): 135 gluconic acid, 135 CsOH, 10 MgCl2, 0.1 CaCl2, 1 EGTA, 10 HEPES, 2 MgATP, 0.4 NaGTP, and 0.5% biocytin, pH 7.25. We used a Multiclamp 700B amplifier (Molecular Devices): data were filtered at 2 kHz, digitized (20 kHz) with a Digidata 1440A (Molecular Devices) to a PC, and acquired using Clampex 10.1 software (PClamp, Molecular Devices). Signals were analyzed off-line using Clampfit 9.2 (PClamp) and MiniAnalysis 6.0.1 (Synaptosoft, Decatur, Ga.). In organotypic slices, spontaneous EPSCs were recorded at the reversal potential for GABAergic currents (Vh=−70 mV). To characterize the nature and kinetic properties of fast and slow events, miniature EPSCs (mEPSCs) evoked in Sr2+ conditions (external Ca2+ was substituted with 1.2 mM Sr2+) were recorded in DGCs from GluK2−/− and WT slices. Electrical stimulation was made in the molecular layer in the continued presence of 5 μM gabazine and 40 μM D-APV; asynchronous mEPSCs were measured during the 300 ms period after the stimulus artifact. […] In cultured slices, visual representation of time-frequency analysis of local field potentials was performed using Autosignal software (Seasolve 1.7). In brief, field activity was highpass-filtered (>100 Hz) and time-frequency analysis performed using a continuous wavelet (Morlet) that reported integrated power (time-integral-squared amplitude, TISA) across time. Filtered traces were also analyzed by Fourier analysis (Hamming) using Clampfit 9.2. In acute hippocampal slices, intensity of antidromically-evoked bursts was quantified using coastline index (Epsztein et al., 2005).
The role of KARs in spontaneous epileptiform activity was then tested using extracellular field recordings in cultured slices. Recordings were performed in 5 mM K+-containing ACSF and in the presence of 5 μM gabazine in order to enhance neuronal excitability and to reliably record stereotyped spontaneous interictal-like activity (Berdichevsky et al., 2012).

[2] = test system: pilocarpine-status epilepticus model of chronic TLE; experiment: Ictal discharges, telemetric intrahippocampal EEG in freely-moving pilocarpine-treated mice; assay type: in vivo, mouse
Description: All experiments were approved by the Institut National de la Santé et de la Recherche Médicale animal care and use committee of May 29, 2001 (2001-464) and the European community council directive of Nov. 24, 1986 (86/609/EEC). Mice (FVB/N background) had access to food and water ad libitum and were housed under a 12 h light/dark cycle at 22-24° C. Male GluK2−/− and WT mice (P60-80) were given scopolamine (1 mg/kg) subcutaneously (s.c.) 15 minutes prior to s.c. administration of pilocarpine (200-600 mg/kg). A ramp protocol was used whereby animals were given an initial dose of 200 mg/kg followed by half-doses every 30 minutes until seizures appeared. Both WT and GluK2−/− mice typically experienced at least two seizures prior to entering status epilepticus (SE). Diazepam (10 mg/kg) was administered 45 minutes after onset of SE.
Naïve wildtype (WT) and pilocarpine-treated WT or GluK2−/− mice (5-6 months old) were anaesthetized with xylazine 13 mg/kg/ketamine 66 mg/kg and placed in a stereotaxic frame (supplemental dosing was administered as required). Body temperature was maintained using a heating pad. […] After a 4 day recovery, EEG (amplified (1000×), filtered at 0.16-97 Hz pass, acquired at 500 Hz) was monitored using a telemetric system (Data Sciences International, St. Paul, Minn.) for 4 days, 24 h per day. […]

AMPA receptor = settings: cited from earlier work
[3] = slices from WT mice, 10 μM SYM2081 or 5 μM UBP310

Q: Which results are given for `Cc1cn(C[C@H](N)C(=O)O)c(=O)n(Cc2ccsc2C(=O)O)c1=O` [UBP310]?
A: effect on interictal-like activity in GluK2-/- mice slices ([1]; GluK2-/- slices, P=0.563, n=7): no effect; alteration of the PD phase (power of paroxysmal discharge) [1, 3]: No significant alteration; reduction of power of the bursts in the late MB phase [1, 3]: 67%; reduction of frequency of interictal-like activity ([1]; slices from WT mice, 10 μM SYM2081 or 5 μM UBP310, 5 mM K+ ACSF, 5 μM gabazine): 49%; frequency of interictal-like activity ([1]; slices from WT mice, 10 μM SYM2081 or 5 μM UBP310, without antagonist 3.2±0.4, mean±SEM): 1.47±0.4 events/min; change in duration of ictal events ([2]; 60 mg/kg intraperitoneal for 3 days, P=0.286): without a significant change; reduction of number of ictal events ([2]; 60 mg/kg intraperitoneal twice a day for 3 days, WT epileptic mice, freely moving): 41%; interference with normal synaptic transmission due to the AMPA receptor (AMPA receptor): does not interfere
